Reference: patent US8399676B2, “Piperidine derivatives” (Hoffman-La Roche Inc., priority 2009, dated 2013)
Structures can show the parent of a compound that is named as a salt.

target: T1, human HSL (Homo sapiens, UniProt Q05469); experiment: Human Hormone-Sensitive Lipase (HSL) enzyme inhibition assay (colorimetric, DMPT substrate); format: biochemical; settings: read-out: HSL hum IC50
T1 construct: generate a full length human HSL ORF with a 3′-His6 tag; His6 (C); made in house; host or cells: High 5 insect cells (baculovirus, pFast-BAC)
T1 sequence (Q05469 1-1076): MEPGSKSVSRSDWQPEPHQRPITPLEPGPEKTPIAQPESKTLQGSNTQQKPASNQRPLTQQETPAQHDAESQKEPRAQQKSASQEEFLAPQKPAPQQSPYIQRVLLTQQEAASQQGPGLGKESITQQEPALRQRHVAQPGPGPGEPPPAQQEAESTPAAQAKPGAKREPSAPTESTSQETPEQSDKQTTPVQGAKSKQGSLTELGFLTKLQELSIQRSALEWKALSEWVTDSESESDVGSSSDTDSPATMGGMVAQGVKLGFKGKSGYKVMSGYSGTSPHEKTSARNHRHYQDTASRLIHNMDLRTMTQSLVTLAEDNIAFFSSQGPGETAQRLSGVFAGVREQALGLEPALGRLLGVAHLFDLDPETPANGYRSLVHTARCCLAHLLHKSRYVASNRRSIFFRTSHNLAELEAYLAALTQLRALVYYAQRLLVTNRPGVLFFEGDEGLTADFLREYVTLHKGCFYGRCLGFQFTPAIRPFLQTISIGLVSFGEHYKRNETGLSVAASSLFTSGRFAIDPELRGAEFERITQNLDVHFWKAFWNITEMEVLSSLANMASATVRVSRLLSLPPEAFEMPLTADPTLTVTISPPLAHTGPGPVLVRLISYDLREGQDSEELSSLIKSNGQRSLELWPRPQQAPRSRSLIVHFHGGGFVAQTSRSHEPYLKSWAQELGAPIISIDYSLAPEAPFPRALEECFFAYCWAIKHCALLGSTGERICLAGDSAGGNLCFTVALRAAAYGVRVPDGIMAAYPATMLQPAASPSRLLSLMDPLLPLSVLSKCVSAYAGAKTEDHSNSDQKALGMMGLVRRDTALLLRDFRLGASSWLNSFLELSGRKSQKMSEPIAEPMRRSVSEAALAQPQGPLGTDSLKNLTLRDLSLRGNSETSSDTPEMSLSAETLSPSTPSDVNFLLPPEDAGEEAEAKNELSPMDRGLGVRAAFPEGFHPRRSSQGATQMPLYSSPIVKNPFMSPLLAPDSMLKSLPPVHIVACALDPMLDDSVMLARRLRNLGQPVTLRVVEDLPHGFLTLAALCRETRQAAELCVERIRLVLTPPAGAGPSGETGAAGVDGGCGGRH
Method: Production of Human Full Length Hormone Sensitive Lipase-His^6
1) Cloning: cDNA was prepared from commercial human brain polyA+ RNA and used as a template in overlapping PCR to generate a full length human HSL ORF with a 3′-His6 tag. This full length insert was cloned into the pFast-BAC vector and the DNA-sequence of several single clones was verified. DNA from a correct full length clone with the 3′His6 tag was used to transform the E. coli strain DH10BAC. Resulting bacmid DNA was used to generate a titered baculovirus stock for protein generation. The sequence of the encoded HSL conforms to Swissprot entry Q05469, with the additional C-terminal His6-tag.
2) Protein purification: Culture: 5.5 L, High 5 cells expressing human full length HSL-His^6, 48 hr., containing 25 μM E-64. Cell count: […], 90% viable.
Cells were thawed. On ice, cells were suspended in Base Buffer containing 10% glycerol, 25 mM Tris-Cl, 300 mM NaCl, 10 mM imidazole, 10 mM 2-mercaptoethanol, 2 μg pepstatin/ml, 2 μg leupeptin/ml, 2 μg antipain/ml, pH 8.0 at 4° C. in a final volume of 475 ml with 3.75×10^7 cells/ml. […] was done at 3×30 sec., Lubrol PX was added to 0.2% final concentration followed by stirring for 15 min. at 4° C. and centrifugation at 25 k×g, 60 min., 4° C. Soluble proteins were mixed with 60 ml of pre-washed and equilibrated Ni-NTA Agarose (Qiagen 30210) followed by tumbling end-over-end, 45 min., 4° C., centrifugation 1000 rpm 5 min and letting resin settle 5 min. Supernatant was removed, the resin washed in the centrifuge vessel using 5 volumes of Base Buffer containing 0.2% Lubrol PX. Centrifugation was done again, then the supernatant discarded. The resin was poured onto a 0.8 μm membrane in a disposable filter unit (Nalge 450-0080), and washed with 5 volumes of Base Buffer containing 0.2% Lubrol PX. It was then washed with 30 volumes of Base Buffer containing 60 mM imidazole pH 7.5 at 4° C. The protein was eluted with 5 volumes of 25 mM Tris-Cl, 300 mM NaCl, 200 mM imidazole, 10 mM 2-mercaptoethanol, pH 7.5 at 4° C. by tumbling resin with buffer end-over-end, 30 min., 4° C. The resin was captured on a 0.2 μm membrane disposable filter unit (Millipore SCGP U02 RE) and the elute collected in the reservoir. The elute was concentrated using a 30 k MWCO centrifugal filter device (Sartorius Vivascience Vivacell 100, VC1022), to 20 ml. It was then dialyzed overnight at 4° C., two times against 2 L of 10% glycerol, 25 mM Tris-Cl, 300 mM NaCl, 0.2 mM EDTA, 0.2 mM DTT, pH 7.5 at 4° C. The protein was filtered using a 0.22 μm disposable filter unit (Millipore SCGP00525). The protein concentration was calculated from absorbance at 280 nm, using 280=0.67 cm-1 mg-1. Yield was 235 mg, total. The protein was stored at −80° C. Human Hormone-Sensitive Lipase (HSL) enzyme inhibition assay:
HSL enzyme activity was measured by a colorimetric assay using 2,3-dimercapto-1-propanol tributyrate (Aldrich, St. Louis, Mo.) as a substrate. Typically, 1.5 mM 2,3-dimercapto-1-propanol tributyrate (DMPT) in 100 mM MOPS, pH 7.2, 0.2 mg/ml fatty acid-free BSA was prepared by sonication at 4° C. to homogenous suspension. Test compounds (2 mM stock in DMSO) were diluted 3 fold in series in DMSO. Compound solutions were diluted 24 fold in 1.5 mM DMPT containing solution and 18 ul per well was added to 384-well microplates (Corning Costar). Twelve microliters per well of human HSL (15 ug/ml) was added and the reaction mixture was incubated at 37° C. for 20 minutes. Six microliters of 12 mM dithio-bis-(2-nitrobenzoic acid) (DTNB) in DMSO plus 1.2% SDS and 0.6% Triton X-100 were added and the mixture was incubated at room temperature for 15 minutes. Product production was monitored by reading absorbance at 405 nm on an Envision Reader (PerkinElmer Life and Analytical Sciences, Shelton, Conn.).

Row | Compound | IC50
1 | Cc1ccccc1S(=O)(=O)N1CCC(O)(C(=O)N(C)c2ccc(OC(F)(F)F)cc2)CC1 [Example 68, 4-Hydroxy-1-(toluene-2-sulfonyl)-piperidine-4-carboxylic acid methyl-(4-trifluoromethoxy-phenyl)-amide] | 0.1 µM
2 | CCc1ccc(NC(=O)C2(N)CCN(S(=O)(=O)c3ccc(C)cc3)CC2)cc1 [Example 81, 4-Amino-1-(toluene-4-sulfonyl)-piperidine-4-carboxylic acid (4-ethyl-phenyl)-amide] | 0.12 µM
3 | CN(C(=O)C1(O)CCN(S(=O)(=O)c2ccccc2C(F)(F)F)CC1)c1ccc(OC(F)(F)F)cc1 [Example 73, 4-Hydroxy-1-(2-trifluoromethyl-benzenesulfonyl)-piperidine-4-carboxylic acid methyl-(4-trifluoromethoxy-phenyl)-amide] | 0.1 µM
4 | CCc1ccc(NC(=O)C2(N)CCN(S(=O)(=O)c3ccccc3Cl)CC2)cc1 [Example 93, 4-Amino-1-(2-chloro-benzenesulfonyl)-piperidine-4-carboxylic acid (4-ethyl-phenyl)-amide] | 0.04 µM
5 | CC(C)c1ccc(NC(=O)C2(N)CCN(S(=O)(=O)c3ccccc3Cl)CC2)cc1 [Example 116, 4-Amino-1-(2-chloro-benzenesulfonyl)-piperidine-4-carboxylic acid (4-isopropyl-phenyl)-amide; hydrochloride] | 0.04 µM
6 | CC(C)(C)c1ccc(NC(=O)N2CCC(N)(C(=O)Nc3ccc(F)cc3)CC2)cc1 [Example 87, 4-Amino-piperidine-1,4-dicarboxylic acid 1-[(4-tert-butyl-phenyl)-amide]-4-[(4-fluoro-phenyl)-amide]; hydrochloride] | 0.78 µM
7 | Cc1ccccc1S(=O)(=O)N1CCC(N)(C(=O)Nc2ccc(C(C)C)cc2)CC1 [Example 119, 4-Amino-1-(toluene-2-sulfonyl)-piperidine-4-carboxylic acid (4-isopropyl-phenyl)-amide] | 0.06 µM
8 | CCc1ccc(NC(=O)C2(N)CCN(Cc3ccccc3F)CC2)cc1 [Example 153, 4-Amino-1-(2-fluoro-benzyl)-piperidine-4-carboxylic acid (4-ethyl-phenyl)-amide] | 0.17 µM
9 | CN(C(=O)C1(O)CCN(S(=O)(=O)c2ccccc2Cl)CC1)c1ccc(OC(F)(F)F)cc1 [Example 72, 1-(2-Chloro-benzenesulfonyl)-4-hydroxy-piperidine-4-carboxylic acid methyl-(4-trifluoromethoxy-phenyl)-amide] | 0.06 µM
10 | CCCCc1ccc(NC(=O)C2(N)CCN(S(=O)(=O)c3ccccc3Cl)CC2)cc1 [Example 104, 4-Amino-1-(2-chloro-benzenesulfonyl)-piperidine-4-carboxylic acid (4-butyl-phenyl)-amide] | 0.06 µM
11 | CCN(C(=O)C1(O)CCN(S(=O)(=O)c2ccccc2C)CC1)c1ccc(OC(F)(F)F)cc1 [Example 74, 4-Hydroxy-1-(toluene-2-sulfonyl)-piperidine-4-carboxylic acid ethyl-(4-trifluoromethoxy-phenyl)-amide] | 0.88 µM
12 | CC(C)(Oc1ccc(NC(=O)C2(N)CCN(S(=O)(=O)c3ccccc3Cl)CC2)cc1)C(F)(F)F [Example 102, 4-Amino-1-(2-chloro-benzenesulfonyl)-piperidine-4-carboxylic acid [4-(2,2,2-trifluoro-1,1-dimethyl-ethoxy)-phenyl]-amide] | 0.18 µM
13 | COC1(C(=O)Nc2ccc(C(C)(C)C)cc2)CCN(S(=O)(=O)c2ccccc2Cl)CC1 [Example 76, 1-(2-Chloro-benzenesulfonyl)-4-methoxy-piperidine-4-carboxylic acid (4-tert-butyl-phenyl)-amide] | 0.53 µM

Results, then the compound that gave them:

Row | IC50 | Compound
14 | 0.21 µM | CC(C)(C)c1ccc(NC(=O)C2(O)CCN(C(=O)c3ccc(F)cc3)CC2)cc1 [Example 18, 1-(4-Fluoro-benzoyl)-4-hydroxy-piperidine-4-carboxylic acid (4-tert-butyl-phenyl)-amide]
15 | 0.45 µM | CC(C)c1ccc(NC(=O)C2(O)CCN(Cc3ccc(C(F)(F)F)cc3)CC2)cc1 [Example 9, 4-Hydroxy-1-(4-trifluoromethyl-benzyl)-piperidine-4-carboxylic acid (4-isopropyl-phenyl)-amide]
16 | 0.2 µM | Cc1ccc(S(=O)(=O)N2CCC(O)(C(=O)Nc3ccc(C(C)(C)C)cc3)CC2)cc1 [Example 16, 4-Hydroxy-1-(toluene-4-sulfonyl)-piperidine-4-carboxylic acid (4-tert-butyl-phenyl)-amide]
17 | 0.46 µM | O=C(c1ccccc1Cl)N1CCC(O)(C(=O)Nc2ccc(OC(F)(F)F)cc2)CC1 [Example 56, 1-(2-Chloro-benzoyl)-4-hydroxy-piperidine-4-carboxylic acid (4-trifluoromethoxy-phenyl)-amide]
18 | 0.18 µM | O=C(Nc1ccc(OC(F)(F)F)cc1)C1(O)CCN(Cc2ccccc2Cl)CC1 [Example 63, 1-(2-Chloro-benzyl)-4-hydroxy-piperidine-4-carboxylic acid (4-trifluoromethoxy-phenyl)-amide]
19 | 0.24 µM | CC(C)c1ccc(NC(=O)C2(N)CCN(Cc3cccc(F)c3)CC2)cc1 [Example 111, 4-Amino-1-(3-fluoro-benzyl)-piperidine-4-carboxylic acid (4-isopropyl-phenyl)-amide; hydrochloride]
20 | 0.2 µM | CC(C)c1ccc(NC(=O)C2(N)CCN(C(=O)c3ccccc3OC(F)(F)F)CC2)cc1 [Example 123, 4-Amino-1-(2-trifluoromethoxy-benzoyl)-piperidine-4-carboxylic acid (4-isopropyl-phenyl)-amide]
